The values that follow come from patent publication US20210085244A1, “WRIST RIGIDITY ASSESSMENT DEVICE AND METHOD FOR IDENTIFYING A CLINICALLY EFFECTIVE DOSE” (INESC TEC- INSTITUTO DE ENGENHARIA DE SISTEMAS …, priority 2015, published 2021).

Structures are written as SMILES.

The test system of this assay is Parkinson's Disease (PD) patients. Nature of the assay: Levodopa level medication test: UPDRS rigidity score and wrist rigidity index by wearable angular velocity sensor. It is filed as in vivo. To be noted: for UPDRS: motor classification for Rigidity & Rest Tremor (0 to 4); for Rigidity label (Avg): average, higher values = lower rigidity; for Rigidity label: higher index values correspond to lower perceived wrist rigidity. An excerpt: FIG. 6: angular velocity data of a wrist rigidity assessment recorded using a device according to an embodiment of the present disclosure for a first subject for a period of time (a) without levodopa and (b) with a clinically effective dosage regime of levodopa. Also pictured are values of a rigidity index (label) calculated according to the present disclosure. Higher index values correspond to lower perceived wrist rigidity. FIG. 7: angular velocity data of a wrist rigidity assessment recorded using a device according to an embodiment of the present disclosure for a second subject for a period of time (a) without levodopa and (b) with a clinically effective dosage regime of levodopa. Also pictured are values of a rigidity index (label) calculated according to the present disclosure. Higher index values correspond to lower perceived wrist rigidity. Levodopa is an amino acid precursor of dopamine with antiparkinsonian properties. Levodopa is a prodrug that is converted to dopamine by DOPA decarboxylase and can cross the blood-brain barrier. Two patients (person and person) were subjected to a Levodopa level medication test where an experienced neurologist evaluates the subjective Unified PD Rating Scale (UPDRS) motor semi-quantitative classification for Rigidity & Rest Tremor (0 to 4) for a baseline (no levodopa) and in steps of increasing levodopa dosages until a UPDRS of 0 is achieved. This is the dosage as prescribed to the patient. At this dosage, wrist rigidity was evaluated as presently disclosed. As described above, higher index values correspond to lower perceived wrist rigidities. See also FIG. 6-7. A threshold of a rigidity measure according to the present disclosure, for example of 70% or 80%, can thus be used to objectively identify a clinically effective dosage regime. Furthermore, a threshold of a rigidity measure according to the present disclosure can also be used to identify a clinically effective dosage regime which also minimizes the risk of side effects.

`N[C@@H](Cc1ccc(O)c(O)c1)C(=O)O` [Levodopa]: the UPDRS (Subject 1, with clinically effective dosage of levodopa, baseline without levodopa 3) is listed as 0 and the UPDRS (Subject 2, with clinically effective dosage of levodopa, baseline without levodopa 2) was 0. Moreover, the “Rigidity label (Avg)” value reads like this: (Subject 1, with levodopa, baseline without levodopa 46.9) 74.3%; (Subject 2, with levodopa, baseline without levodopa 48.6) 84.9%. In addition, the Rigidity label reads like this: (Subject 1, with levodopa, baseline without levodopa 40-50) 70-80%; (Subject 2, with levodopa, baseline without levodopa 50) 80-90%.
